The results in this text go back to PubChem BioAssay AID1117349.

The subject of the test is HeLa cells, increased 2N DNA content (cell cycle). The experiment in a line: HeLa 2N DNA content increase, dose response, cell-based, IC50 (AID 1117349).

Calls of active or inactive are those of the source. How the calls were made is not given here.

A word on the IC50: it is the concentration that inhibits the measured activity by half.

For `CCCCCCCCCCCCCC[N+](C)(C)C`, the IC50 was > 10 µM (inactive).

`Cc1ccc([N+](=O)[O-])[c]2c1[O][Hg]2`: the IC50 is > 10 µM (inactive).

For `CCCCCCCCCCCC(=O)[O][Sn]([CH2]CCC)([CH2]CCC)[O]C(=O)CCCCCCCCCCC`, the IC50 was > 10 µM (inactive).

Consider `C[n+]1c2cc(N)ccc2cc2ccc(N)cc21` (tested in a mixture with another compound), for which the concentration for half-maximal inhibition (IC50) was 3.39 µM.
